Where two headings read alike, the source gives them in different places.
Tests used:
Format in all cases: cell-based
[1] = test system: S1T (cell strain originated from an ATL patient); assay: Growth inhibition of S1T cells, 4-day culture, MTT method; conditions: for IC50: S1T cells, 4 days; for Selectivity to ATL cell (S1T) in words: S1T versus MOLT-4; for Selectivity index on the S1T cell (SI = IC50 for MOLT-4/IC50 for S1T): screen with S1T and MOLT-4
Method: (§1) In the presence of various agents, S1T (cell strain originated from an ATL patient), MT-2 (HTLV-1 infected cell strain), and as controls, MOLT-4 (acute lymphoblastic leukemia cell strain), CEM (acute lymphoblastic leukemia cell strain), HL-60 (acute promyelocytic leukemia cell strain), and Jurkat (acute T-cell leukemia cell strain) were cultivated for 4 days, and the growth inhibitory effects of compounds on the respective cells were evaluated by the MIT method.
(§2) In the presence of various concentrations of agents, SIT (cell strain originated from an ATL patient) and as a control MOLT-4 (acute lymphoblastic leukemia cell strain) were cultivated for 4 days, and the growth inhibitory effects of the compounds on the respective cells were evaluated by the MTT method.

[2] = test system: MOLT-4 (acute lymphoblastic leukemia cell strain); assay: Growth inhibition of MOLT-4 control cells, 4-day culture, MTT method; conditions: MOLT-4 cells, 4 days
Method: as §1, §2

[3] = test system: CEM (acute lymphoblastic leukemia cell strain); assay: Growth inhibition of CEM control cells, 4-day culture; conditions: 4 days
Method: as §1, with “S1T” left out

[4] = test system: MT-2 (HTLV-1 infected cell strain); assay: Growth inhibition of MT-2 cells, 4-day culture; conditions: 4 days
Method: as §1, with “S1T” left out

[5] = test system: HL-60 (acute promyelocytic leukemia cell strain); assay: Growth inhibition of HL-60 control cells, 4-day culture; conditions: HL-60 cells, 4 days
Method: as §1, with “S1T” left out

[6] = test system: Jurkat (acute T-cell leukemia cell strain); assay: Growth inhibition of Jurkat control cells, 4-day culture; conditions: 4 days
Method: as §1, with “S1T” left out

[7] = Homo sapiens, 96 h, Table 2, MTT, mean of at least 2 experiments, read-out: IC50 (μM) S1T cell
[8] = Table 2, selectivity to ATL cell (IC50 for MOLT-4/IC50 for S1T)
[9] = Homo sapiens, 96 h, Table 2, MTT, mean of at least 2 experiments, read-out: IC50 (μM) MOLT-4 cell
[10] = Table 2, MTT, mean of at least 2 experiments, read-out: IC50 (μM) S1T cell
[11] = Table 2, MTT, mean of at least 2 experiments, read-out: IC50 (μM) MOLT-4 cell
[12] = Homo sapiens, 96 h, Table 1, concentration to inhibit cell growth by 50%, read-out: IC50 (μM) S1T
[13] = Table 1, selectivity index = IC50 for MOLT-4/IC50 for S1T
[14] = Homo sapiens, 96 h, Table 1, concentration to inhibit cell growth by 50%, read-out: IC50 (μM) MOLT-4

SMILES: CC1(C)CCC(C)(C)c2cc(C(=O)c3ccccc3)ccc21 [Agent H, 5,6,7,8-tetrahydro-5,5,8,8-tetramethyl-2-naphthyl phenyl ketone]
- IC50 [1, 7]: 7 ± 0.9 µM
- SI [1, 8]: 1.7
- IC50 [2, 9]: 11.8 ± 2.2 µM

SMILES: CN(C)C=CC(=O)c1cc2c(cc1O)C(C)(C)CCC2(C)C [Agent M, 5,6,7,8-tetrahydro-3-hydroxy-5,5,8,8-tetramethyl-2-naphthyl 13-(N,N-dimethylamino)vinyl ketone]
- IC50 [1, 10]: 2.1 ± 0.1 µM
- SI [1, 8]: 4.4
- IC50 [2, 11]: 9.3 ± 0.9 µM

SMILES: O=C([O-])c1ccccc1O.[Na+] [Sodium salicylate, reference compound]
- IC50 [1, 12]: 1570 µM
- Selectivity to ATL cell (S1T) in words [1]: no selectivity to S1T was recognized
- SI [1, 13]: 0.84
- IC50 [2, 14]: 1320 µM

SMILES: CC(C)C(=O)c1cc2c(cc1O)C(C)(C)CCC2(C)C [Agent B, 5,6,7,8-tetrahydro-3-hydroxy-5,5,8,8-tetramethyl-2-naphthyl isopropyl ketone]
- IC50 [1, 7]: 6 ± 0.7 µM
- SI [1, 8]: 5.3
- IC50 [2, 9]: 31.9 ± 0.2 µM

SMILES: CC(C)(C)C(=O)c1cc2c(cc1O)C(C)(C)CCC2(C)C [Agent C, 5,6,7,8-tetrahydro-3-hydroxy-5,5,8,8-tetramethyl-2-naphthyl tert-butyl ketone]
- IC50 [1, 7]: 41.5 ± 0.8 µM
- SI [1, 8]: 1.0
- IC50 [2, 9]: 43.2 ± 2.4 µM

SMILES: CC1(C)CCC(C)(C)c2cc(C(=O)c3ccccc3)c(O)cc21 [Agent D, 5,6,7,8-tetrahydro-3-hydroxy-5,5,8,8-tetramethyl-2-naphthyl phenyl ketone]
- IC50 [1, 7]: 15.2 ± 2.3 µM
- SI [1, 8]: 1.9
- IC50 [2, 9]: 28.3 ± 0.7 µM

SMILES: CC(=O)c1ccc2c(c1)C(C)(C)CCC2(C)C [TMN(COCH3), 5,6,7,8-tetrahydro-5,5,8,8-tetramethyl-2-naphthyl methyl ketone]
- IC50 [1, 12]: 6.9 µM
- Selectivity to ATL cell (S1T) in words [1]: higher selectivity to an ATL cell than other derivatives with analogous structures
- SI [1, 13]: 9.6
- IC50 [2, 14]: 66 µM

SMILES: CC(=O)c1cc2c(cc1O)C(C)(C)CCC2(C)C [TMNAA, 5,6,7,8-tetrahydro-3-hydroxy-5,5,8,8-tetramethyl-2-naphthyl methyl ketone]
- Growth inhibitory effect on CEM [3]: specific inhibitory effect solely on MT-2
- Concentration at which growth of an ATL cell is selectively inhibited in comparison to the control ([1]; FIG. 1): ≥ 4 µM
- IC50 [1, 12]: 5 µM
- Selectivity to ATL cell (S1T) in words [1]: higher selectivity to an ATL cell than other derivatives with analogous structures
- SI [1, 13]: 10.8
- Selectivity index on the S1T cell (SI = IC50 for MOLT-4/IC50 for S1T) [1]: ≥ 10
- Selectivity index on the S1T cell (SI = IC50 for MOLT-4/IC50 for S1T) ([1]; listed as compound of the formula III): above 10
- Growth inhibitory effect on MT-2 [4]: specific inhibitory effect solely on MT-2
- Growth inhibitory effect on HL-60 [5]: specific inhibitory effect solely on MT-2
- Growth inhibitory effect on Jurkat [6]: specific inhibitory effect solely on MT-2
- IC50 [2, 14]: 53.8 µM

SMILES: CC(=S)c1cc2c(cc1O)C(C)(C)CCC2(C)C [Agent G, 5,6,7,8-tetrahydro-3-hydroxy-5,5,8,8-tetramethyl-2-naphthyl ethanethione]
- IC50 [1, 10]: 6.9 ± 2.3 µM
- SI [1, 8]: 5.3
- IC50 [2, 11]: 36.4 ± 2.1 µM

SMILES: COc1cc2c(cc1C(C)=O)C(C)(C)CCC2(C)C [TMN(OCH3) (COCH3)]
- IC50 [1, 12]: 7 µM
- Selectivity to ATL cell (S1T) in words [1]: higher selectivity to an ATL cell than other derivatives with analogous structures
- SI [1, 13]: 1.7
- IC50 [2, 14]: 11.9 µM

SMILES: CC1(C)CCC(C)(C)c2cc3c(=O)ccoc3cc21 [Agent N, 6,7,8,9-tetrahydro-6,6,9,9-tetramethyl-4H-naphtho[2,3-b]pyran-4-one]
- IC50 [1, 7]: 1.9 ± 0.2 µM
- SI [1, 8]: 7.6
- IC50 [2, 9]: 14.5 ± 1.9 µM

SMILES: CC1(C)CCC(C)(C)c2ccccc21 [TMN, reference compound]
- IC50 [1, 12]: > 100 µM
- IC50 [2, 14]: > 100 µM

SMILES: CON(C)C(=O)c1ccc2c(c1)C(C)(C)CCC2(C)C [Agent J, 5,6,7,8-tetrahydro-5,5,8,8-tetramethyl-2-naphthyl-N-methoxy-N-methylamide]
- IC50 [1, 10]: 12.6 ± 2.1 µM
- SI [1, 8]: <1.0
- IC50 [2, 11]: 9.9 µM

SMILES: CC1(C)CCC(C)(C)c2cc(C(=O)O)ccc21 [TMBA, reference compound]
- IC50 [1, 12]: > 100 µM
- SI [1, 13]: <0.61
- IC50 [2, 14]: 61.1 µM

SMILES: CCC(=O)c1ccc2c(c1)C(C)(C)CCC2(C)C [Agent E, 5,6,7,8-tetrahydro-5,5,8,8-tetramethyl-2-naphthyl ethyl ketone]
- IC50 [1, 7]: 3.3 ± 1 µM
- SI [1, 8]: 6.5
- IC50 [2, 9]: 21.5 ± 2.2 µM

SMILES: CCC(=O)c1cc2c(cc1O)C(C)(C)CCC2(C)C [Agent A, 5,6,7,8-tetrahydro-3-hydroxy-5,5,8,8-tetramethyl-2-naphthyl ethyl ketone]
- IC50 [1, 7]: 4.7 ± 1.3 µM
- SI [1, 8]: 6.9
- IC50 [2, 9]: 32.3 ± 5.4 µM

SMILES: CC(C)C(=O)c1ccc2c(c1)C(C)(C)CCC2(C)C [Agent F, 5,6,7,8-tetrahydro-5,5,8,8-tetramethyl-2-naphthyl isopropyl ketone]
- IC50 [1, 7]: 3.8 ± 2.1 µM
- SI [1, 8]: 9.1
- IC50 [2, 9]: 34.6 ± 1.5 µM

SMILES: CC1(C)CCC(C)(C)c2cc(C(N)=O)ccc21 [Agent K, 5,6,7,8-tetrahydro-5,5,8,8-tetramethyl-2-naphthyl amide]
- IC50 [1, 10]: 37 ± 2.1 µM
- SI [1, 8]: 1.1
- IC50 [2, 11]: 39.4 ± 10.4 µM

SMILES: CC1(C)CCC(C)(C)c2cc3c(cc21)OCCC3=O [Agent O, 2,3,6,7,8,9-hexahydro-6,6,9,9-tetramethyl-4H-naphtho[2,3-b]pyran-4-one]
- IC50 [1, 7]: 6.7 ± 0.9 µM
- SI [1, 8]: 2.0
- IC50 [2, 9]: 13.6 ± 2.6 µM

SMILES: CC1(C)CCC(C)(C)c2cc(C(=O)O)c(O)cc21 [TNBAA, reference compound]
- IC50 [1, 12]: 29.7 µM
- SI [1, 13]: 1.49
- IC50 [2, 14]: 44.4 µM

Reference: US8765719B2, “Therapeutic drug for adult T-cell leukemia” (Kagoshima University, priority 2008, dated 2014)
